Measured values from patent US5482967A, “Condensed heterocyclic compounds, their production and use” (Takeda Chemical Industries, Ltd., priority 1992, dated 1996).
pIC50: −log10 of the molar value. Where a name gives a salt, the structure may show the parent alone.

target: substance P receptor (Homo sapiens, UniProt P25103); assay: Radioligand receptor binding inhibitory assay using receptor from human lymphoblast cells (IM-9), 125I-BHSP; conditions: IM-9 receptor, 25° C., 30 minutes
Procedure: The method of A. Margaret et al. [Molecular Pharmacology 42, 458 (1992)] was modified and used. The receptor was prepared from human lymphoblast cells (IM-9). IM-9 cells were grown in 175 cm^2 tissue culture flasks (100 ml×10) at a density approximately 2×10^5 /ml of RPMI 1640 with L-glutamine, 10% (V/V) heat inactivated fetal calf serum, penicillin (100 u/ml), and streptomycin (100 μg/ml) at 37° C. in 5% CO2 /95% air for 3 days. IM-9 cells were obtained by centrifugation at 500×g for 5 minutes at 5° C. The pellet obtained was washed once with phosphate buffer (Flow Laboratories, CAT No. 28-103-05), homogenized using Polytron homogenizer (Kinematika, Germany) in 30 ml of 50 mM Tris-HCl buffer containing 120 mM NaCl, 5 mM KCl, 2 μg/ml phenylmethyl sulfonyl fluoride, and 1 mM ethylenediamine tetra-acetic acid and then centrifuged at 40,000×g for 20 minutes. The residue was washed twice with 30 ml of buffer described above, and preserved frozen (-80° C.).
The above specimen was suspended in a reaction buffer (50 mM Tris-HCl buffer (pH 7.4), 0.02% bovine serum albumin, 1 mM phenylmethylsulfonyl fluoride, 2 μg/ml chymostatin, 40 μg/ml bacitracin, 3 mM manganese chloride) at a protein concentration of 1.5 mg/ml and a 100 μl portion of the suspension was used in the reaction. After addition of the sample and 125I-BHSP (0.46 KBq), the reaction was conducted in 0.2 ml of reaction buffer at 25° C. for 30 minutes. The amount of nonspecific binding was determined by adding substance P at a final concentration of 2×10^-6 M. After the reaction, using a cell harvester (290PHD, Cambridge Technology, Inc., England), rapid filtration was carried out through a glass filter (GF/B, Whatman, U.S.A.) to stop the reaction. After washing three times with 250 μl of 50 mM Tris-HCl buffer (pH 7.4) containing 0.02% bovine serum albumin, the radioactivity remaining on the filter was measured with a gamma counter. Before use, the filter was immersed in 0.1% polyethyleneimine for 24 hours and air-dried.

Chain of substance P receptor (P25103 whole entry): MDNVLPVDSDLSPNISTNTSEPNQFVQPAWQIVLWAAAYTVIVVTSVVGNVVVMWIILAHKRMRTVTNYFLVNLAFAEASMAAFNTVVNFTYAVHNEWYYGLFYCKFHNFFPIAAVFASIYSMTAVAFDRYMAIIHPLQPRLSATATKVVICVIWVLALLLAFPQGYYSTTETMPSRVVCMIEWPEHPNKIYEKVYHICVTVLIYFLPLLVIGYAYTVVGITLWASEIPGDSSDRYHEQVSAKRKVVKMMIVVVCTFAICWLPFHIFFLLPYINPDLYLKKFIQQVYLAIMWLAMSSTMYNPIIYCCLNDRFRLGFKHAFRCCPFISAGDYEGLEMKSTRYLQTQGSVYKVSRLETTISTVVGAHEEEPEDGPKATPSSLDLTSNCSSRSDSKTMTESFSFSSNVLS

Row | SMILES | pIC50
1 | Cn1c(C(=O)NCc2cc(C(F)(F)F)cc(C(F)(F)F)c2)c(-c2ccccc2)c2cc(Cl)ccc2c1=O [Example 173, N-[3,5-Bis(trifluoromethyl)benzyl]-6-chloro-1,2-dihydro-2-methyl-1-oxo-4-phenyl-3-isoquinolinecarboxamide] | 7.62
2 | Cn1c(C(=O)NCc2cc(C(F)(F)F)cc(C(F)(F)F)c2)c(-c2ccccc2)c2c(c1=O)CCCC2 [Example 185, N-[3,5-Bis(trifluoromethyl)benzyl]-1,2,5,6,7,8-hexahydro-2-methyl-1-oxo-4-phenyl-3-isoquinolinecarboxamide] | 7.49
3 | CN(Cc1cc(C(F)(F)F)cc(C(F)(F)F)c1)C(=O)c1cnc2ccc(Cl)cc2c1-c1ccccc1 [Example 264, N-[3,5-Bis(trifluoromethyl)benzyl]-6-chloro-N-methyl-4-phenyl-3-quinolinecarboxamide] | 7.80
4 | COc1nc(C(=O)N(C)Cc2cc(C(F)(F)F)cc(C(F)(F)F)c2)c(-c2ccccc2)c2ccccc12 [Example 277, N-[3,5-Bis(trifluoromethyl)benzyl]-1-methoxy-N-methyl-4-phenyl-3-isoquinolinecarboxamide] | 7.27
5 | COc1cc(CNCc2c(-c3ccccc3)c3ccccc3c(=O)n2C)cc(OC)c1OC [Example 205, 1,2-Dihydro-2-methyl-1-oxo-4-phenyl-N-(3,4,5-trimethoxybenzyl)-3-isoquinolinemethylamine] | 7.66
6 | CN(Cc1cc(C(F)(F)F)cc(C(F)(F)F)c1)C(=O)[C@H]1[C@@H](c2ccccc2)c2ccccc2C(=O)N1C (relative stereo) [Example 279, 3,4-cis-N-[3,5-Bis(trifluoromethyl)benzyl]-1,2,3,4-tetrahydro-N-2-dimethyl-1-oxo-4-phenyl-3-isoquinolinecarboxamide] | 7.47
7 | COc1ccccc1CNC1CCCn2c1c(-c1ccccc1)c1ccccc1c2=O (stereo not shown) [Example 239, 1,2,3,4-Tetrahydro-1-(2-methoxybenzylamino)-6-oxo-11-phenyl-6H-benzo[b]quinolizine] | 7.10
8 | COc1ccccc1-c1c(C(=O)N(C)Cc2cc(C(F)(F)F)cc(C(F)(F)F)c2)oc(=O)c2ccccc12 [Example 244, N-[3,5-Bis(trifluoromethyl)benzyl]-4-(2-methoxyphenyl)-N-methyl-1-oxo-1H-2-benzopyran-3-carboxamide] | 8.80
9 | Cn1c(=O)c(C(=O)NCc2cc(C(F)(F)F)cc(C(F)(F)F)c2)c(-c2ccccc2Cl)c2ccccc21 [Example 261, N-[3,5-Bis(trifluoromethyl)benzyl]-4-(2-chlorophenyl)-1,2-dihydro-1-methyl-2-oxo-3-quinolinecarboxamide] | 7.20
10 | COc1nc2ccccc2c(-c2ccccc2)c1C(=O)N(C)Cc1cc(C(F)(F)F)cc(C(F)(F)F)c1 [Example 270, N-[3,5-Bis(trifluoromethyl)benzyl]-2-methoxy-N-methyl-4-phenyl-3-quinolinecarboxamide] | 8.00
11 | CN(Cc1cc(C(F)(F)F)cc(C(F)(F)F)c1)C(=O)c1c(-c2ccccc2Cl)c2ccccc2n(C)c1=O [Example 262, N-[3,5-Bis(trifluoromethyl)benzyl]-4-(2-chlorophenyl)-1,2-dihydro-N,1-dimethyl-2-oxo-3-quinolinecarboxamide] | 8.70
12 | CCc1ccccc1-c1c(COCc2cc(C(F)(F)F)cc(C(F)(F)F)c2)n(C)c(=O)c2ccccc12 [Example 216, 3,5-Bis(trifluoromethyl)benzyl 4-(2-ethylphenyl)-1,2-dihydro-2-methyl-1-oxo-3-isoquinolinemethyl ether] | 7.21
13 | CN(C)CCn1c(C(=O)N(C)Cc2cc(C(F)(F)F)cc(C(F)(F)F)c2)c(-c2ccccc2)c2ccccc2c1=O [Example 184, N-[3,5-Bis(trifluoromethyl)benzyl]-2-[2-(N,N-dimethylamino)ethyl]-1,2-dihydro-N-methyl-1-oxo-4-phenyl-3-isoquinolinecarboxamide hydrochloride] | 7.77
14 | Cc1nc2ccccc2c(-c2ccccc2)c1C(=O)NCc1cc(C(F)(F)F)cc(C(F)(F)F)c1 [Example 266, N-[3,5-Bis(trifluoromethyl)benzyl]-2-methyl-4-phenyl-3-quinolinecarboxamide] | 8.09
15 | COc1ccccc1-c1c(C(=O)N(C)Cc2cc(C(F)(F)F)cc(C(F)(F)F)c2)n(C)c(=O)c2ccccc12 [Example 159, N-[3,5-Bis(trifluoromethyl)benzyl]-1,2-dihydro-4-(2-methoxyphenyl)-N,2-dimethyl-1-oxo-3-isoquinolinecarboxamide] | 7.92
16 | CN(Cc1cc(C(F)(F)F)cc(C(F)(F)F)c1)C(=O)c1c(-c2ccccc2)c2cc(Cl)ccc2c(=O)n1C [Example 174, N-[3,5-Bis(trifluoromethyl)benzyl]-6-chloro-1,2-dihydro-N,2-dimethyl-1-oxo-4-phenyl-3-isoquinolinecarboxamide] | 8.47
17 | CN(Cc1cc(C(F)(F)F)cc(C(F)(F)F)c1)C(=O)c1nc(Cl)c2ccccc2c1-c1ccc(F)cc1 [Example 273, N-[3,5-Bis(trifluoromethyl)benzyl]-1-chloro-4-(4-fluorophenyl)-N-methyl-3-isoquinolinecarboxamide] | 8.70
18 | Cc1ccc2c(=O)oc(C(=O)N(C)Cc3cc(C(F)(F)F)cc(C(F)(F)F)c3)c(-c3ccccc3)c2c1 [Example 247] | 8.28
19 | CN(Cc1cc(C(F)(F)F)cc(C(F)(F)F)c1)C(=O)c1c(-c2ccccc2)c2c(c(=O)n1C)CCCC2 [Example 186, N-[3,5-Bis(trifluoromethyl)benzyl]-1,2,5,6,7,8-hexahydro-N-2-dimethyl-1-oxo-4-phenyl-3-isoquinolinecarboxamide] | 8.74
20 | O=C1c2c(-c3ccccc3)c3ccccc3c(=O)n2CCN1Cc1cc(C(F)(F)F)cc(C(F)(F)F)c1 [Example 240, N-[3,5-Bis(trifluoromethyl)benzyl]-1,2,3,4-tetrahydro-1,6-dioxo-11-phenyl-6H-pyrazino[1,2-b]isoquinoline] | 8.70
21 | COc1ccccc1CN(C)C(=O)c1c(-c2ccccc2)c2cc(C)c(C)cc2c(=O)n1C [Example 111, 1,2-Dihydro-N-(2-methoxybenzyl)-N,2,6,7-tetramethyl-1-oxo-4-phenyl-3-isoquinolinecarboxamide] | 7.01
22 | CN(Cc1cc(C(F)(F)F)cc(C(F)(F)F)c1)C(=O)c1nc(Cl)c2ccccc2c1-c1ccccc1 [Example 275, N-[3,5-Bis(trifluoromethyl)benzyl]-1-chloro-N-methyl-4-phenyl-3-isoquinolinecarboxamide] | 8.72
23 | CCN(Cc1ccccc1OC)C(=O)c1c(-c2ccccc2C)c2ccccc2c(=O)n1C [Example 107, N-Ethyl-1,2-dihydro-N-(2-methoxybenzyl)-2-methyl-4-(2-methylphenyl)-1-oxo-3-isoquinolinecarboxamide] | 7.47
24 | Cc1cc(C)cc(CNC2CCCn3c2c(-c2ccccc2)c2cc(C)c(C)cc2c3=O)c1 (stereo not shown) [Example 233, 1-(3,5-Dimethylbenzylamino)-1,2,3,4-tetrahydro-8,9-dimethyl-6-oxo-11-phenyl-6H-benzo[b]quinolizine hydrochloride] | 7.36
25 | CN(Cc1cc(C(F)(F)F)cc(C(F)(F)F)c1)C(=O)c1c(-c2ccccc2C(F)(F)F)c2ccccc2c(=O)n1C [Example 182, N-[3,5-Bis(trifluoromethyl)benzyl]-1,2-dihydro-N,2-dimethyl-1-oxo-4-(2-trifluoromethylphenyl)-3-isoquinolinecarboxamide] | 8.70
